We go through four compounds from publication PMC5766511 (Scientific Reports, 2018).

In assay [1] the test system is draining lymph node cells of HLA-DR1 (DRB1*0101) transgenic mice. The class given is cell-based, mouse. Particulars: n = 6.
In assay [2] the test system is splenocytes of ZIKV (PF13/251013-18) infected AG129 mice. The class given is cell-based, mouse. Particulars: n = 5.
In assay [3] the test system is draining lymph node cells of HLA-DQ8 (DQB1*0302) transgenic mice. The class given is cell-based, mouse. Particulars: n = 6.
Assay [4] deals with draining lymph node cells of HLA-DR1501 (DRB1*1501) transgenic mice. The class given is cell-based, mouse. The following applies: primed with 25 μg recombinant ZIKV Env; day 10 DLN cells; positive if > 2 SD above mean without antigen; n = 6; Fig. 2B.
Assay [5] concerns the target HLA-DR3 (DRB1*03:01) heterodimer (Homo sapiens, UniProt P01903+P01911, A100K/A102G/A103R/A169T/F55Y/I96L/K41T/L162R/M171V/P40S/Q125H/Q178H/Q39Y/R42S/S66N/T106N/T262R/W38E/Y61H). Nature of the assay: biochemical.
For assay [6], the target named is HLA-DR15 (DRB1*15:01) heterodimer (Homo sapiens, UniProt P01903+P01911). Nature of the assay: biochemical. It is filed as binding.

Entries after “also recorded” stand apart in the source; their conditions may differ.

Sequence of HLA-DR3 (DRB1*03:01) heterodimer (P01903 26-254 limits assumed, other chains not shown): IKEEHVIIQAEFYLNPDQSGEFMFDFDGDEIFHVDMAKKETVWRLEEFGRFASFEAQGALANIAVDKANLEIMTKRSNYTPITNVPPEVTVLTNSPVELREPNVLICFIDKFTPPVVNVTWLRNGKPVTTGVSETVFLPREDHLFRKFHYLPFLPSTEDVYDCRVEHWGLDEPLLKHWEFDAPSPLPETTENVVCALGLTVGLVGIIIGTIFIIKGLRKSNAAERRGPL

Take FNCLGMSNRDFLEGVSGATW [WNV P1]: in assay [1], the “IFNγ ELISpot response of ZIKV Env primed T cells to peptide (in words), HLA-DR1” value is “significant responses”. Besides, the “IFNγ ELISpot response of splenic cells to peptide” value in assay [2] is given as “Strong responses; also recorded: of similar magnitude to the ZIKV p1 response”. For the same compound, the “IFNγ ELISpot response of ZIKV Env primed T cells to peptide (in words), HLA-DQ8” value in assay [3] is “significant responses”. In addition, the “IFNγ ELISpot response of ZIKV Env primed T cells to peptide (in words), HLA-DR1501” value in assay [4] is listed as “cross-reactive responses”.

Take `CC[C@H](C)[C@H](NC(=O)[C@@H](NC(=O)[C@H](CCCCN)NC(=O)[C@H](C)NC(=O)[C@H](C)N)[C@@H](C)O)C(=O)N[C@@H](C)C(=O)N[C@@H](Cc1ccc(O)cc1)C(=O)N[C@@H](CC(=O)O)C(=O)N[C@@H](CCC(=O)O)C(=O)N[C@@H](CCC(=O)O)C(=O)N[C@@H](C)C(=O)N[C@@H](CCCNC(=N)N)C(=O)N[C@@H](CCCNC(=N)N)C(=O)NCC(=O)N[C@@H](CC(C)C)C(=O)N[C@@H](CCC(=O)O)C(=O)O` [MT2-16]: the IC50 (in general, the concentration that gives 50% inhibition) in assay [5] worked out at 50 nM.

The compound `CC(C)C[C@H](NC(=O)[C@H](Cc1ccc(O)cc1)NC(=O)[C@H](C)NC(=O)[C@H](CCCNC(=N)N)NC(=O)[C@H](CC(C)C)NC(=O)[C@H](CCC(N)=O)NC(=O)[C@H](CCC(=O)O)NC(=O)[C@H](C)NC(=O)[C@@H](N)CCC(=O)O)C(=O)N[C@@H](CC(=O)O)C(=O)NCC(=O)N[C@H](C(=O)NCC(=O)N[C@H](C(=O)N[C@@H](CCC(=O)O)C(=O)O)C(C)C)[C@@H](C)O` [A3 152–166] showed an IC50 in assay [6] of 40 nM.

For the compound “KAACPTMGEAHNDKRADPAF [WNV P8, WNV Env variant of ZIKV Env peptide 8]”, the “IFNγ ELISpot response of ZIKV Env primed T cells to peptide (in words), HLA-DQ8” value in assay [3] was “cross-reactive epitope recognition”.
